Source: patent US9403874B2, “Peptides and use thereof” (IL YANG PHARM. CO.,LTD., priority 2012, dated 2016)

What was measured:
Format in all cases: cell-based
Settings in all cases: 100 ng/me of peptide; EBV-infected B cells stimulated with anti-CD150; ELISA of culture supernatant
IL-8 = test: Reduction of IL-8 secretion in activated B cells (ELISA)
Protocol: (§1) In order to determine the activity of the novel peptides synthesized in Example 1 for reducing the secretion of inflammatory cytokines, the activated pathogenic B cells were treated with each of the 18 types of synthesized novel peptides and the reduction in secretion of inflammatory cytokines from the B cells was monitored.
(§2) Specifically, in order to determine whether the novel peptides could weaken the pathogenic B cells which are involved in the development of disease symptoms, the in vitro B cells model which is similar to the joint infiltrative B cells of rheumatoid arthritis was used. The activated pathogenic B cell was generated by stimulating Ebstein Barr virus (EBV)-infected B cells with anti-CD150 antibodies, and the cells were treated with […] of each of the 18 types of novel peptide.
(§3) In order to confirm the effect of 18 types of novel peptides in reducing inflammatory cytokines, the secretion amount of various cytokines (IL-1A, IL-1B, IL-2, IL-4, IL-5, IL-6, IL-8, IL-10, IL-12A, IL-13, IL-17A, GM-CSF, IL-34) secreted from the activated B cells was measured. The supernatants of B cell culture were analyzed enzyme-linked immunosorbent assay (ELISA), and the difference in absorbance (450 nm-570 nm) of the color developing reagent was measured as test results. Based on the measured difference in absorbance (450 nm-570 nm) of the color developing reagent, the absorbance of cytokines secreted when treated with the 18 types of novel […] was calculated in percentage, while setting the absorbance corresponding to the cytokines secreted from the activated B cells stimulated by anti-CD150 as 100%.

IL-2 = test: Reduction of IL-2 secretion in activated B cells (ELISA)
Protocol: as §1, §2, §3

IL-17A = test: Reduction of IL-17A secretion in activated B cells (ELISA)
Protocol: as §1, §2, §3

IL-10 = test: Reduction of IL-10 secretion in activated B cells (ELISA)
Protocol: as §1, §2, §3

IL-12A = test: Reduction of IL-12A secretion in activated B cells (ELISA)
Protocol: as §1, §2, §3

IL-34 = test: Reduction of IL-34 secretion in activated B cells (ELISA)
Protocol: as §1, §2, §3

IL-4 = test: Reduction of IL-4 secretion in activated B cells (ELISA)
Protocol: as §1, §2, §3

GM-CSF = test: Reduction of GM-CSF secretion in activated B cells (ELISA)
Protocol: as §1, §2, §3

IL-13 = test: Reduction of IL-13 secretion in activated B cells (ELISA)
Protocol: as §1, §2, §3

IL-6 = test: Reduction of IL-6 secretion in activated B cells (ELISA)
Protocol: as §1, §2, §3

IL-1B = test: Reduction of IL-1B secretion in activated B cells (ELISA)
Protocol: as §1, §2, §3

IL-5 = test: Reduction of IL-5 secretion in activated B cells (ELISA)
Protocol: as §1, §2, §3

IL-1A = test: Reduction of IL-1A secretion in activated B cells (ELISA)
Protocol: as §1, §2, §3

| Substance | Inhibition rate of each cytokine compared to CD150-stimulated EBV-t B cells (%) IL-8 (IL-8) [%] | Inhibition rate of each cytokine compared to CD150-stimulated EBV-t B cells (%) IL-2 (IL-2) [%] | Inhibition rate of each cytokine compared to CD150-stimulated EBV-t B cells (%) IL-17A (IL-17A) [%] | Inhibition rate of each cytokine compared to CD150-stimulated EBV-t B cells (%) IL-10 (IL-10) [%] | Inhibition rate of each cytokine compared to CD150-stimulated EBV-t B cells (%) IL-12A (IL-12A) [%] | Inhibition rate of each cytokine compared to CD150-stimulated EBV-t B cells (%) IL-34 (IL-34) [%] | Inhibition rate of each cytokine compared to CD150-stimulated EBV-t B cells (%) IL-4 (IL-4) [%] | Inhibition rate of each cytokine compared to CD150-stimulated EBV-t B cells (%) GM-CSF (GM-CSF) [%] | Inhibition rate of each cytokine compared to CD150-stimulated EBV-t B cells (%) IL-13 (IL-13) [%] | Inhibition rate of each cytokine compared to CD150-stimulated EBV-t B cells (%) IL-6 (IL-6) [%] | Inhibition rate of each cytokine compared to CD150-stimulated EBV-t B cells (%) IL-1B (IL-1B) [%] | Inhibition rate of each cytokine compared to CD150-stimulated EBV-t B cells (%) IL-5 (IL-5) [%] | Inhibition rate of each cytokine compared to CD150-stimulated EBV-t B cells (%) IL-1A (IL-1A) [%] |
| --- | --- | --- | --- | --- | --- | --- | --- | --- | --- | --- | --- | --- | --- |
| RDG (SIS-1#14 peptide) | 5.7 | 10.2 | 7.7 | 10.4 | 2.9 | 4.2 | 3.0 | 0.3 | 4.4 | 1.5 | 5.3 | 11.0 | 7.2 |
| RDGRTDGRTD (SIS-1#8 peptide) | 29.2 | 33.0 | 30.1 | 10.0 | 19.2 | 19.8 | 18.9 | 19.8 | 33.5 | 23.8 | 25.9 | 12.0 | 30.2 |
| TDG (SIS-1#11 peptide) | 4.2 | 3.2 | 6.3 | 4.2 | 6.8 | 7.2 | 19.5 | 4.2 | 5.9 | 8.1 | 2.7 | 10.8 | 6.0 |
| RDGRTDG (SIS-1#2 peptide) | 25.2 | 15.1 | 39.8 | 19.8 | 30.1 | 25.4 | 23.8 | 19.0 | 23.8 | 29.8 | 18.2 | 25.4 | 23.8 |
| PSPRDGRTDG (SIS-1#6 peptide) | 28.0 | 23.1 | 42.2 | 4.5 | 30.8 | 31.0 | 20.5 | 21.2 | 29.4 | 33.9 | 15.2 | 15.6 | 12.0 |
| RTDCTR (SIS-1#3 peptide) | 19.2 | 12.3 | 11.0 | 25.2 | 19.4 | 9.8 | 13.2 | 7.2 | 10.2 | 18.2 | 20.0 | 17.4 | 14.0 |
| MSLPSP (SIS-1#1 peptide) | 17.5 | 13.5 | 24.8 | 7.2 | 19.8 | 18.8 | 19.8 | 18.0 | 15.0 | 19.2 | 9.3 | 18.5 | 7.8 |
